Legend:
D(2) dopamine receptor = D(2) dopamine receptor (Rattus norvegicus, UniProt P61169); experiment: Inhibition of [3H]spiperone binding to Dopamine receptor D2-like in rat caudate-putamen membrane; assay type: cell membranes
D(3) dopamine receptor = D(3) dopamine receptor (Rattus norvegicus, UniProt P19020); experiment: biochemical
Chain of D(3) dopamine receptor (P19020 whole entry): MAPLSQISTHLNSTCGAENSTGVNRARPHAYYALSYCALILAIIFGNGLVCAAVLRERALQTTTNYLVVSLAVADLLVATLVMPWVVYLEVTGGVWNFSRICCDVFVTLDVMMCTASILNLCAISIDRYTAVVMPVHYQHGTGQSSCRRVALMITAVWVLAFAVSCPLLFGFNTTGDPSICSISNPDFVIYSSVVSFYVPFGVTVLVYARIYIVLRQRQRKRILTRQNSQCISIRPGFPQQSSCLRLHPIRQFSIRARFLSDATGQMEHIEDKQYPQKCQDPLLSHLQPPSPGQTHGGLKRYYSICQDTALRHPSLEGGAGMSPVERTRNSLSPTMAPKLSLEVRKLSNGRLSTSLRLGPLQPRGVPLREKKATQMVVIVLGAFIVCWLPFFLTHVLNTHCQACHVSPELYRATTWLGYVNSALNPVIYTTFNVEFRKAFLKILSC
Description: Inhibition of [3H]-PD 128907 binding to Dopamine receptor D3 in rat ventral striatum

Chain of D(2) dopamine receptor (P61169 whole entry): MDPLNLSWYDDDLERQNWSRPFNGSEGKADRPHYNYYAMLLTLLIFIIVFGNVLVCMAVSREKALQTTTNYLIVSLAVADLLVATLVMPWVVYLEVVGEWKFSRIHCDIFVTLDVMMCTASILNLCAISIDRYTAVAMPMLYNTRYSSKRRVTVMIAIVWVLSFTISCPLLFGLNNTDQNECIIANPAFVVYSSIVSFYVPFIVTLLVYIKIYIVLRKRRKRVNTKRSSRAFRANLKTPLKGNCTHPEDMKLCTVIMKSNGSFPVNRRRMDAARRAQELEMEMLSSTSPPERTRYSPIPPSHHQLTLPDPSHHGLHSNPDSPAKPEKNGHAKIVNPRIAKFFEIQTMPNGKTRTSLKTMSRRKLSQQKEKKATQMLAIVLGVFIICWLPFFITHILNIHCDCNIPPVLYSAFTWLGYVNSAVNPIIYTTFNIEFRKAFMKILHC

| Ki (D(2) dopamine receptor) | Ki (D(3) dopamine receptor) | SMILES |
| --- | --- | --- |
| 180 nM | 16 nM | O=C(NCCCCN1CCN2c3ccccc3CC[C@H]2C1)c1ccc2ccccc2c1 |
| 1570 nM |  | O=C(NCCCCN1CCN2c3ccccc3CCC2C1)c1ccc2ccccc2c1 (stereo not drawn) |
| 1720 nM | 44 nM | COc1ccc2c(c1)N1CCN(CCCCNC(=O)c3ccc4ccccc4c3)C[C@H]1CC2 |
| > 100000 nM | 67 nM | COc1ccc2c(c1)CC[C@@H]1CN(CCCCNC(=O)c3ccc4ccccc4c3)CCN21 |
| > 50000 nM | 126 nM | COc1ccc2c(c1)CC[C@H]1CN(CCCCNC(=O)c3ccc4ccccc4c3)CCN21 |
| 990 nM | 96 nM | COc1ccc2c(c1)N1CCN(CCCCNC(=O)c3ccc4ccccc4c3)C[C@@H]1CC2 |
| 585 nM | 19 nM | O=C(NCCCCN1CCN2c3ccccc3CC[C@@H]2C1)c1ccc2ccccc2c1 |
| 659 nM | 9.3 nM | COc1cccc2c1CC[C@H]1CN(CCCCNC(=O)c3ccc4ccccc4c3)CCN21 |

More lines, now with the values behind:

| SMILES | Ki (D(2) dopamine receptor) | Ki (D(3) dopamine receptor) |
| --- | --- | --- |
| COc1ccc2c(c1)CC[C@@H]1CN(CCN3CCC(NC(=O)c4ccc5ccccc5c4)CC3)CCN21 | > 50000 nM | 4640 nM |
| O=C(CCCN1CCN2c3ccccc3CCC2C1)c1ccc(F)cc1 (stereo not drawn) | 243 nM |  |
| COc1ccc2c(c1)CC[C@@H]1CN(CC[C@H]3CC[C@H](NC(=O)c4ccc5ccccc5c4)CC3)CCN21 | > 10000 nM | 5.7 nM |
| COc1cccc2c1N1CCN(CCCCNC(=O)c3ccc4ccccc4c3)C[C@@H]1CC2 | 88 nM |  |
| COc1cccc2c1CC[C@@H]1CN(CCCCNC(=O)c3ccc4ccccc4c3)CCN21 | 644 nM | 8.3 nM |
| COc1cccc2c1N1CCN(CCCCNC(=O)c3ccc4ccccc4c3)C[C@H]1CC2 | 312 nM |  |
| COc1ccc2c(c1)CC[C@H]1CN(CCN3CCC(NC(=O)c4ccc5ccccc5c4)CC3)CCN21 | > 25000 nM | 7160 nM |
| COc1ccc2c(c1)CC[C@H]1CN(CCC3CCC(NC(=O)c4ccc5ccccc5c4)CC3)CCN21 (stereo partly drawn) | > 10000 nM | 10 nM |
